From the supplement of paper PMC10307832

Columns and labels:
Assay in all cases: relative viability (nuclei count vs DMSO), 5 days (fraction); higher = more cells survive
BGJ398 + Navitoclax = compound: CCN1CCN(c2ccc(Nc3cc(N(C)C(=O)Nc4c(Cl)c(OC)cc(OC)c4Cl)ncn3)cc2)CC1 [BGJ398] + CC1(C)CCC(c2ccc(Cl)cc2)=C(CN2CCN(c3ccc(C(=O)NS(=O)(=O)c4ccc(N[C@H](CCN5CCOCC5)CSc5ccccc5)c(S(=O)(=O)C(F)(F)F)c4)cc3)CC2)C1 [Navitoclax] (partner 0.5 µM)
Method in brief: (§1)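 One day after seeding in 1536-well plates, lung cancer cell lines were dosed by pin tool. Dosing was either single-drug or a fixed anchor-drug dose plus five library-drug doses (not always all listed) in √10 steps. After 5 days, nuclei were stained in one fix-and-stain step and counted on 4× images, and relative viability is the nuclei count of treated wells over that of vehicle wells, given as the median of duplicate plates.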

[1] = compound: C1=CC2=NC=CN=C2C=C1/C=C/3\C(=O)NC(=O)S3 + N=C(N)NC(=N)NCCc1ccccc1 [Phenformin] (partner 250 µM)
Method in brief: as §1

[2] = compound: C1=CC2=NC=CN=C2C=C1/C=C/3\C(=O)NC(=O)S3 + Nc1ncn([C@H]2C[C@H](O)[C@@H](CO)O2)c(=O)n1 [Decitabine] (partner 2 µM)
Method in brief: as §1

[3] = compound: C1=CC2=NC=CN=C2C=C1/C=C/3\C(=O)NC(=O)S3 + CC(=O)Nc1cccc(-n2c(=O)n(C3CC3)c(=O)c3c(Nc4ccc(I)cc4F)n(C)c(=O)c(C)c32)c1 [Trametinib] (partner 0.02 µM)
Method in brief: as §1

Cell Line	relative viability (BGJ398 + Navitoclax; first compound 0.01 µM)	relative viability (BGJ398 + Navitoclax; first compound 0.03162 µM)	relative viability (BGJ398 + Navitoclax; first compound 0.1 µM)	relative viability (BGJ398 + Navitoclax; first compound 0.3162 µM)	relative viability (BGJ398 + Navitoclax; first compound 1 µM)	relative viability ([1]; first compound 0.02 µM)	relative viability ([1]; first compound 0.06325 µM)	relative viability ([1]; first compound 0.2 µM)	relative viability ([1]; first compound 0.6325 µM)	relative viability ([1]; first compound 2 µM)	relative viability ([2]; first compound 0.02 µM)	relative viability ([2]; first compound 0.06325 µM)	relative viability ([2]; first compound 0.2 µM)	relative viability ([2]; first compound 0.6325 µM)	relative viability ([2]; first compound 2 µM)	relative viability ([3]; first compound 0.02 µM)	relative viability ([3]; first compound 0.06325 µM)	relative viability ([3]; first compound 0.2 µM)	relative viability ([3]; first compound 0.6325 µM)	relative viability ([3]; first compound 2 µM)
NCI-H2170	0.505	0.572	0.586	0.671	0.765	0.425	0.375	0.441	0.426	0.423	0.467	0.47	0.451	0.414	0.46	0.866	1.01	1.03	0.868	0.986
NCI-H2347	0.671	0.939	0.828	0.835	0.777	0.352	0.322	0.422	0.394	0.375	0.631	0.829	0.631	0.586	0.546	0.296	0.295	0.225	0.312	0.156
NCI-H1993	1.02	0.836	0.909	1.02	0.882	0.492	0.529	0.513	0.557	0.599	0.527	0.594	0.737	0.557	0.507	0.516	0.527	0.504	0.452	0.506
NCI-H322M	1.23	1.26	1.05	1.2	1.31	0.744	0.813	0.796	0.776	0.669	0.693	0.776	0.798	0.665	0.692	0.535	0.507	0.469	0.503	0.383
NCI-H838	1.08	1.11	1.03	0.907	0.917	0.664	0.737	0.596	0.461	0.36	0.429	0.46	0.415	0.481	0.39	0.537	0.47	0.555	0.454	0.366
HARA	1.11	1.14	1.19	1.13	1.05	0.451	0.384	0.395	0.428	0.422	0.537	0.587	0.498	0.614	0.63	0.477	0.632	0.507	0.788	0.672
NCI-H2087	0.847	0.973	0.83	0.974	0.741	0.428	0.33	0.42	0.493	0.502	0.355	0.255	0.256	0.253	0.267	0.178	0.188	0.17	0.179	0.233
NCI-H1437	1.1	1.12	1.07	1.08	1.06	0.258	0.286	0.369	0.274	0.233	0.548	0.546	0.588	0.536	0.617	0.475	0.448	0.534	0.45	0.329
NCI-H1792	0.659	0.561	0.642	0.601	0.553	0.351	0.177	0.465	0.341	0.113	0.535		0.6	0.513	0.374	0.363		0.542	0.386	0.248
ChaGo-K-1	1.06	0.913	0.76	0.69	0.444	0.45	0.466	0.516	0.35	0.369	0.512	0.459	0.533	0.498	0.568	0.9	0.785	0.888	0.887	0.872
COR-L23	1.05	0.978	0.986	0.966	1.08	0.459	0.455	0.46	0.43	0.425	0.481	0.466	0.445	0.414	0.369	0.557	0.596	0.617	0.567	0.422
COR-L 105	0.707	0.805	0.815	0.827	0.598	0.46	0.43	0.494	0.5	0.413	0.599	0.69	0.673	0.683	0.593	0.422	0.549	0.451	0.408	0.423
LK-2	0.72	0.733	0.726	0.529	0.317	0.615	0.603	0.488	0.368	0.195	0.285	0.291	0.452	0.279	0.154	0.769	0.813	0.847	0.828	0.567
201T	1.33	1.19	1.2	1.2	1.17	0.448	0.49	0.452	0.495	0.323	0.901	0.864	0.824	0.87	0.879	0.669	0.726	0.718	0.736	0.713
HCC-44	0.797	0.91	1.13	1.06	0.866	0.314	0.212	0.202	0.153	0.122	0.872	1.07	0.942	0.961	0.843	0.961	1	1.05	1.12	1
NCI-H596	0.96	0.645	0.698	0.73	0.614	0.744	0.66	0.742	0.675	0.714	0.886	0.954	1.09	0.972	1.72	0.764	0.771	0.794	0.887	0.722

Cell Line	relative viability (BGJ398 + Navitoclax; first compound 0.01 µM)	relative viability (BGJ398 + Navitoclax; first compound 0.03162 µM)	relative viability (BGJ398 + Navitoclax; first compound 0.1 µM)	relative viability (BGJ398 + Navitoclax; first compound 0.3162 µM)	relative viability (BGJ398 + Navitoclax; first compound 1 µM)	relative viability ([1]; first compound 0.02 µM)	relative viability ([1]; first compound 0.06325 µM)	relative viability ([1]; first compound 0.2 µM)	relative viability ([1]; first compound 0.6325 µM)	relative viability ([1]; first compound 2 µM)	relative viability ([2]; first compound 0.02 µM)	relative viability ([2]; first compound 0.06325 µM)	relative viability ([2]; first compound 0.2 µM)	relative viability ([2]; first compound 0.6325 µM)	relative viability ([2]; first compound 2 µM)	relative viability ([3]; first compound 0.02 µM)	relative viability ([3]; first compound 0.06325 µM)	relative viability ([3]; first compound 0.2 µM)	relative viability ([3]; first compound 0.6325 µM)	relative viability ([3]; first compound 2 µM)
H3255	0.477	0.161	0.614	0.408	0.548	0.368	0.348	0.358	0.358	0.3	0.6	0.649	0.595	0.534	0.622	0.607	0.698	0.643	0.6	0.699
NCI-H647	0.97	1.26	1.4	1.14	1.01	0.587	0.56	0.591	0.384	0.437	0.339	0.458	0.382	0.432	0.488	0.459	0.52	0.545	0.444	0.389
NCI-H2023	0.953	1.01	1.01	1.02	0.993	0.441	0.452	0.438	0.426	0.329	0.205	0.237	0.205	0.195	0.222	0.511	0.539	0.516	0.428	0.427
NCI-H23	0.874	0.765	0.848	0.896	0.865	0.79	0.716	0.825	0.781	0.729	0.329	0.357	0.322	0.286	0.3	0.346	0.489	0.361	0.394	0.223
NCI-H1944	0.986	1.05	1.08	0.884	1.05	0.187	0.188	0.199	0.204	0.155	0.364	0.386	0.432	0.423	0.462	0.394	0.384	0.395	0.38	0.394
NCI-H1793	0.417		0.391	0.251	0.326	0.416	0.32	0.452	0.334	0.322	0.417	0.391	0.559	0.447	0.552	0.411	0.334	0.434	0.421	0.529
NCI-H520	1.11	1.04	0.833	0.633	0.547	0.635	0.728	0.601	0.464	0.644	0.481	0.545	0.482	0.436	0.562	0.648	0.65	0.812	0.664	0.62
NCI-H460	1.01	1.11	1.4	1.12	1.33	0.477	0.619	0.536	0.516	0.468	0.524	0.389	0.515	0.459	0.534	0.0917	0.0921	0.223	0.11	0.0876
EKVX	0.896	1.02	1.16	0.874	0.992	0.216	0.22	0.239	0.223	0.225	0.258	0.399	0.287	0.337	0.373	0.301	0.392	0.32	0.322	0.33
EPLC-272H	1.04	0.989	1.16	1.01	1.09	0.259	0.302	0.371	0.26	0.297	0.351	0.344	0.4	0.356	0.321	0.253	0.261	0.273	0.296	0.293
NCI-H1395	1.08	1.36	1.13	0.996	0.848	0.449	0.449	0.47	0.416	0.483	0.637	0.693	0.74	0.703	0.651	1.01	0.974	1.06	0.978	1.02
NCI-H2126	0.809	0.831	0.888	0.839	0.902	0.503	0.581	0.567	0.534	0.339	0.567	0.647	0.567	0.527	0.481	0.481	0.591	0.538	0.533	0.48
LXF-289	0.933	0.905	0.892	0.873	0.831	0.491	0.501	0.535	0.526	0.478	0.357	0.374	0.334	0.379	0.389	0.671	0.655	0.649	0.662	0.688
NCI-H2009	1.21	1.19	1.18	1.23	1.17	0.507	0.454	0.508	0.482	0.461	0.353	0.388	0.358	0.381	0.352	0.256	0.356	0.284	0.252	0.232
NCI-H2405	0.806	0.926	0.969	0.941	0.872	0.44	0.406	0.397	0.383	0.111	0.686	0.818	0.751	0.793	0.586	0.622	0.765	0.648	0.623	0.399
NCI-H1755	0.984	1.04	0.986	0.968	1.07	0.578	0.625	0.588	0.62	0.562	0.74	0.628	0.729	0.689	0.685	0.719	0.642	0.823	0.772	0.764
